Source: patent US5461057A, “Hydro-ethano-indeno-pyridines” (priority 1994, dated 1995)
Like-named read-outs stand apart in the source and are kept apart here.

What was measured:
pulmonary resistance = assay: Pulmonary Resistance in the Anesthetized Rat; assay type: in vivo; settings: 0.5 mpk, i.v., mean of 5 animals, % decrease in pre-drug baseline resistance; for inhibition in vivo at 0.5 mg/kg: Rattus norvegicus, iv, read-out: Pulmonary Resistance in Rats, % Inhibition
Procedure: Rats (400-500 g) anesthetized with dialurethane were surgically prepared with tracheal and esophageal catheters. These catheters were connected to pressure transducers for recording of air flow, tracheal and esophageal pressures. These pressures formed the basis for measurement of pulmonary resistance. Inhibition of pulmonary resistance is a reflection of bronchodilation.
All compounds were tested i. v. in 5 separate animals. All data are expressed in % decrease in the pre-drug baseline resistance and each number given is the mean of the 5 animals tested.
The model is sensitive to bronchodilator activity.
Further information relating this test can be obtained from the following publications which are hereby incorporated by reference: Comroe et al, J. Appl. Physio. 4:439-44 (1959); Dungan et al J. Pharmacol. Exp. Therap. 164:290-301(1968); and Mead, J. et al. J. Appl. Physio. 5:779-796 (1953).

[1] = system: histamine-induced dyspnea; assay: Bronchodilator (in vivo) Guinea Pig Dyspnea; settings: oral, one hour before histamine challenge
Procedure: Unanesthetized guinea pigs (250-350 g), fasted overnight were placed in individual closed aerosol chambers which were connected to a Monoghan Ultrasonic nebulizer. The nebulizer can deliver an ultrasonic fog of uniform particles in a range of 1-8 microns. A 0.1% solution of histamine is aerosolized into the chambers causing the guinea pigs to develop dyspnea. The test drug was given orally one hour before the histamine challenge and the onset of dyspnea was recorded. Saline control animals developed dyspnea within 90-120 seconds of aerosol exposure. […] The data was expressed as the number tested over the number survived. The model was sensitive to bronchodilator and H1 antihistamine activity. Further information relating this test can be obtained from the following two publications which are hereby incorporated by reference: Dungan, K. W. and Lish, P. M. J Allergy 32:139-151 (1961). and Lish, P. M., Robbins, S. I. and Petres E. L. J. Pharmacol. Exp. Therap. 153 L 1538 (1966 ).

TBZ-induced ptosis = assay: Effects on tetrabenazine (TBZ)-induced ptosis in mice; assay type: in vivo, mouse; settings: for ED50: Mus musculus, po; for TBZ ED50: p.o.
Text: Clinically active antidepressant drugs are known to block TBZ-induced ptosis in mice (See Psychosomatic Medicine, Nodine and Moyer, Eds. Lea and Febiger, Philadelphia, 1962, pp 683-90, which is hereby incorporated by reference). Activity in this test is used to predict anti-depressant activity in man.
The procedure for the TBZ-Induced Ptosis Test in Mice is set forth in Psychosomatic Medicine, Nodine and Moyer, Eds. Lea and Febiger, which is hereby incorporated by reference and in PCT/US91/06705, filed 20 Sep. 1991, which is mentioned above.
(§1) The results for this test are given below as ED50 's in the units of mg/kg.
TBZ refers to the test of effects on tetrabenazine induced ptosis in mice, p.o.;

methamphetamine toxicity = assay: Methamphetamine toxicity test in mice; assay type: in vivo; settings: Mus musculus, read-out: METHA ED50
Procedure: The methamphetamine toxicity test in mice was carried out as described in Burn et al, Arch. Int. Pharmacodyn 113:290-295, (1958); and Coscia et al, Arzneim-Forsch (Drug Research) 25:1436-1442, (1975); which are hereby incorporated by reference.
(§2) The results for this test are given below as ED50's in the units of mg/kg.
METHA refers to the methamphetamine toxicity test in mice;

[2] = system: muricidal (mouse-killing) behavior; assay: Effects on muricidal behavior in rats; assay type: in vivo, rat; settings: for ED50: Rattus norvegicus, read-out: MUR ED50
Text: Blockade of muricidal (mouse-killing) behavior in rats is used as a measure of evaluating the anti-depressant activity of drugs, and the procedure for carrying out this test is set forth in Int. J. Neuro-pharmacal., 5, 405-411 (1966) are hereby incorporated by reference, and in PCT/US91/06705, filed 20 Sep. 1991, which is mentioned above.
as §1
MUR refers to the test on the effects on muricidal behavior in rats;

[3] = system: LOX human melanoma cell adhesion to human fibronectin; assay: LOX melanoma cell adhesion to fibronectin; assay type: cell-based; settings: for inhibition at 10 µM / inhibition at 50 µM / IC50: Homo sapiens, LOX; for inhibition at 10 µM: read-out: % Inhibition at 10 μM; for inhibition at 50 µM: read-out: % Inhibition at 50 μM; for IC50: read-out: LOX FN IC50
Procedure: (§3) Adhesion assays were run essentially as described previously (Pai et al., J. Biomed. Res. 2: 53, 1992). 96-well plates were coated with human fibronectin (140 ng/well), human vitronectin (75 ng/well), human collagen I (100 ng/well), human collagen IV (100 ng/well), human fibrinogen (1 μg/well), murine laminin (600 ng/well), or polylysine, and incubated overnight in a humidified 37° C. incubator. Excess fibronectin or other substrate was then removed and 0.2 ml of 2 mg/ml bovine serum albumin (BSA)in Dulbecco's phosphate-buffered saline (DPBS) was added to each well, incubated for 2 hours at 37° C., and removed. LOX human melanoma cells, M27 murine lung carcinoma cells or B16F10 mouse melanoma cells were detached from tissue culture flasks with RPMI medium containing 0.2M urea and 10 mM EDTA, and 0.18 ml of cells were added to each well to a final cell concentration of 1×10^5 cells/well. For inhibition studies 20 μl of 10× compound was added to the wells prior to cell addition. Cells were allowed to adhere for 1 hour at 37° C. The wells were then gently washed twice with 0.2 ml DPBS. The fluorescent dye calcein AM (Molecular Probes, Eugene Oreg.) in DPBS (0.1 ml of 1 μM) was added to each well, and the plates were incubated for 1 hour at room temperature. Adherent cells were quantitated by reading the fluorescence on a Cytofluor 2300 fluorescent plate reader (Millipore) at 485 nm excitation and 530 nm emission.
LOX FN-IC50 value for inhibition of adhesion of LOX human melanoma cells to fibronectin coated on a plastic surface.

[4] = system: acetic acid-induced writhing; assay: Acetic Acid Writhing Test in Mice; assay type: in vivo, mouse; settings: for ED50: Mus musculus, po, read-out: WRITH ED50
Text: The blockade of writhing induced by the intraperitoneal injection of acetic acid is an established experimental animal model for the screening of antinociceptive drugs (drugs which prevent the appreciation or transmission of pain sensations).
The procedure for the Acetic Acid Writhing Test in Mice is set forth in Hendershot et al, J. Pharmacol. Exp. Therap. 125:237, (1959); Koster et al., Fed. Proc. 18:412, (1959); and international application PCT/US91/06705, filed 20 Sep. 1991, which are hereby incorporated by reference.
The results for this test are given below in the units of mg/kg which is also abbreviated in this specification as mpk. The results for this test are given as effective doses (ED50 's).

metrazole = assay: Anti-metrazole test in mice; assay type: in vivo, mouse; settings: for ED50: Mus musculus, read-out: MTZ ED50
Procedure: The anti-metrazole test in mice was carried out as described in Everett et al, J. Pharmacol. Exp. Therap. 81:402-407 (1944); which is hereby incorporated by reference.
as §2

[5] = Calcein cytotoxicity assay; assay type: cell-based; settings: human, lox melanoma cells, calcein AM assay; for CC50 at 2 h: read-out: 2 Hr Tox LD50
Procedure: LOX human melanoma cells were detached from tissue culture flasks with RPMI medium containing 0.2M urea and 10 mM EDTA, and 0.18 ml of cells were added to each well to a final cell concentration of 5×10^4 cells/well. 20 μl of 10× compound was added to the wells prior to cell addition. Cells were incubated with the compound at 37° C. for 1 hour or 5 hour as indicated. Calcein AM in DPBS (0.02 ml of 5 μM) was added to each well, and the plates were incubated for an additional 1 hour at room temperature. Viable cells were quantitated by reading the fluorescence on a Cytofluor 2300 fluorescent plate reader at 485 nm excitation and 530 nm emission.

ELAM-1 = ELAM-1 (Homo sapiens, UniProt P16581); assay: cell-based
Procedure: Cell adhesion to ELAM-1 was measured essentially as described previously (Pal et al., J. Biomed. Res. 2: 53, 1992). Undifferentiated HL-60 leukemia cells were prelabelled for 30 minutes with 1 μM calcein AM in DPBS without calcium or magnesium, and the cells were washed twice with the same medium before addition to 96-well plates containing monolayers of mouse L cells (5×10^4 cells/well) transfected with cDNA for the adhesion molecule ELAM-1. Adhesion was allowed to proceed for 30 minutes at room temperature before washing and quantitation of the remaining fluorescent HL-60 cells as described above.
ELAM-1 (E-selectin) is a member of the selectin class of adhesion molecules.

[6] = system: LOX human melanoma cell adhesion to polylysine; assay: LOX melanoma cell adhesion to polylysine; assay type: cell-based; settings: read-out: Poly Lys IC50
Procedure: as §3

[7] = system: B16-F10 murine melanoma metastasis; assay: In vivo experimental metastasis; set-up: species or system mouse (C57/black6); settings: 250 mpk
Procedure: C57/black6 female mice (6-7 weeks old) were randomized before any treatment into groups of 5 mice per treatment. Compounds of the invention were prepared as a fine suspension in 25% β-cyclodextran and administered i.p. in a volume of 0.2 ml per animal. Two hours after drug (or vehicle) injection, 0.2 ml of DPBS containing 1×10^5 B-16 F10 murine melanoma cells were injected i.v. into the tail vein. After 14 days, animals were sacrificed and lungs were removed. Metastatic lung colonies were counted by visual inspection.
*Pretreatment Time is the time between i.p. drug injection and i.v. tumor

[8] = system: discrete trial avoidance behavior; assay: Conditioned avoidance suppression in rats; assay type: in vivo, rat; settings: for minimal effective dose: Rattus norvegicus, read-out: CAR minimum effective dose (MED)
Text: See Ann. N.Y. Acad. Sci. 66,740 (1957) which is hereby incorporated by reference. The procedure for carrying out this test is set forth in Int. J. Neuro-pharmacal., 5, 405-411 (1966) which is hereby incorporated by reference and in PCT/US91/06705, filed 20 Sep. 1991, which is mentioned above.
The results for this test are given below as minimum effecive doses (MED)in the units of mg/kg.
As used herein, CAR refers to the conditioned avoidance suppression test in rats;

[9] = Cavia porcellus, 1 h, 50 mg/kg, read-out: DYSP survivors (converted)

ELAM-1, sequence (P16581 22-610): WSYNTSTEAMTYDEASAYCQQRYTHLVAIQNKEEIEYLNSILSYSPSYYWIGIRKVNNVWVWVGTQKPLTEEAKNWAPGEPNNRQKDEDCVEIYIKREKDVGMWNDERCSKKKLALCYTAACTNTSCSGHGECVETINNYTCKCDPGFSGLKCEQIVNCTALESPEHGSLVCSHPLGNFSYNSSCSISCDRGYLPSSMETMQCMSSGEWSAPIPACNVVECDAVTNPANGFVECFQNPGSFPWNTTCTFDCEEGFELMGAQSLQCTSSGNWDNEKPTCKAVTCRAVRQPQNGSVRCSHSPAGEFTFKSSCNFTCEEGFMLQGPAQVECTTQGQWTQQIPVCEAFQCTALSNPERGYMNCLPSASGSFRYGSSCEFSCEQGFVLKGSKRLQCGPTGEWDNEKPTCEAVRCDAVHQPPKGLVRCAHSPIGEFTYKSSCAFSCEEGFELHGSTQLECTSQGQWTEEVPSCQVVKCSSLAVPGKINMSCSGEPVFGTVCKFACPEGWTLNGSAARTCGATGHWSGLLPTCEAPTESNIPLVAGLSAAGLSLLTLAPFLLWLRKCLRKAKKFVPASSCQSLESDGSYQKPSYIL

Row | Compound | DYSP survivors ([1]; 100 mg/kg) | ED50 (TBZ-induced ptosis) | ED50 [2] | inhibition at 10 µM ([3]; 10 μM) | inhibition at 50 µM ([3]; 50 μM) | ED50 [4] | ED50 (metrazole) | CC50 at 2 h [5] | IC50 [6] | minimal effective dose [8] | further results
1 | COc1ccc(C2C3=C(c4ccccc42)C2CCC(C3)N2C)cc1OC (centres unmarked) [AA] | 0/3 | > 30 mg/kg | > 10 mg/kg | -30% | 23.6% | 22.8 mg/kg | > 30 mg/kg |  |  |  | Pulmonary Resistance in Rats, % Inhibition (pulmonary resistance): 6%; ED50 (methamphetamine toxicity): > 30 mg/kg
2 | CN1C2CCC1C1C(=C(c3ccc(Cl)cc3)c3cc(F)ccc31)C2 (centres unmarked) [Compound A] | 2/3 |  |  |  |  |  |  | 17.4 µM | 11.8 µM |  | IC50 ([3]; 1 h): 4.8 µM; inhibition at 10 µM [3]: 81.1%; inhibition at 50 µM [3]: 101%; CC50 at 6 h ([5]; 6 hours, read-out: 6 Hr Tox LD50): 5.9 µM; IC50 (ELAM-1): 21.8 µM
3 | O=P1(N(CCCl)CCCl)NCCCO1 (centres unmarked) [Cytoxan, reference compound] |  |  |  |  |  |  |  |  |  |  | effectiveness as positive control [7]: showed similar effectiveness; % Inhibition of lung metastasis ([7]; pretreatment time 30 min): 77.8%; Number of Lung Melanoma Colonies ([7]; pretreatment time 30 min): 17.6 ± 4.2
4 | COc1ccc2c(c1)C(O)(c1ccccc1)C1CC3CCC(C21)N3C (centres unmarked) [DDD] |  | > 30 mg/kg | 3.8 mg/kg |  |  | > 30 mg/kg | > 30 mg/kg |  |  | > 25 mg/kg | 
5 | COc1ccc2c(c1)C(c1ccccc1)C1=C2C2CCC(C1)N2C (centres unmarked) [EE] |  | > 30 mg/kg |  |  |  | > 30 mg/kg | > 30 mg/kg |  |  | > 25 mg/kg | 
6 | COc1ccc(C2(O)c3ccccc3C3C4CCC(CC32)N4C)cc1 (centres unmarked) [PP] |  | > 30 mg/kg | > 10 mg/kg | 4.9% | 21.9% | > 30 mg/kg | > 30 mg/kg |  |  | > 25 mg/kg | inhibition in vivo at 0.5 mg/kg (pulmonary resistance): 62%; responders at 50 mg/kg [1, 9]: 0%
7 | CN1C2CCC1C1c3ccccc3C(O)(c3ccc(F)cc3)C1C2 (centres unmarked) [SS] |  | > 30 mg/kg | > 10 mg/kg | 10.1% | 17.3% | > 30 mg/kg | > 30 mg/kg | > 250 µM | > 250 µM |  | inhibition in vivo at 0.5 mg/kg (pulmonary resistance): 22%; responders at 50 mg/kg [1, 9]: 33.3%; responders at 100 mg/kg ([1]; Cavia porcellus, 1 h, 100 mg/kg, read-out: DYSP survivors (converted)): 100%; ED50 (methamphetamine toxicity): > 30 mg/kg; IC50 ([3]; Table 4, 1 hour adhesion): > 50 µM
8 | CN1C2CCC1C1C(=C(c3ccccc3)c3ccccc31)C2 (centres unmarked) [T] | 2/3 |  | > 10 mg/kg |  |  | 17.3 mg/kg | > 30 mg/kg | 135 µM | 115 µM | > 25 mg/kg | Pulmonary Resistance in Rats, % Inhibition (pulmonary resistance): 46%; DYSP survivors ([1]; 50 mg/kg): 0/3; TBZ ED50 (TBZ-induced ptosis): 5.7 mg/kg; % Inhibition at 10 μM ([3]; 10 μM): 2.2%; % Inhibition at 50 μM ([3]; 50 μM): 89.3%; IC50 ([3]; Table 4, 1 hour adhesion): 19.5 µM
9 | CN1C2CCC1C1C(=C(c3ccccc3)c3ccccc31)C2 (centres unmarked) [U] |  |  |  |  |  |  |  |  |  |  | TBZ ED50 (TBZ-induced ptosis): 1.3 mg/kg; CAR minimum effective dose (MED) [8]: > 25 mg/kg; MUR ED50 [2]: 14.1 mg/kg; % Inhibition at 10 μM ([3]; 10 μM): -18.7%; % Inhibition at 50 μM ([3]; 50 μM): 21.0%; WRITH ED50 ([4]; p.o.): > 30 mg/kg; MTZ ED50 (metrazole): > 30 mg/kg
